For test [1], the target named is Choline-phosphate cytidylyltransferase A (Homo sapiens, UniProt P49585).
Test [2] has as its target Eukaryotic peptide chain release factor GTP-binding subunit ERF3B (Homo sapiens, UniProt Q8IYD1).
The target of test [3] is Tyrosine-protein kinase JAK2 (Homo sapiens, UniProt O60674).
The target of test [4] is Serine/threonine-protein kinase PLK1 (Homo sapiens, UniProt P53350).
Test [5] has as its target Serine/threonine-protein kinase 24 (Homo sapiens, UniProt Q9Y6E0).
Test [6] deals with Dual specificity testis-specific protein kinase 2 (Homo sapiens, UniProt Q96S53).
Sequence of Dual specificity testis-specific protein kinase 2 (Q96S53 whole entry): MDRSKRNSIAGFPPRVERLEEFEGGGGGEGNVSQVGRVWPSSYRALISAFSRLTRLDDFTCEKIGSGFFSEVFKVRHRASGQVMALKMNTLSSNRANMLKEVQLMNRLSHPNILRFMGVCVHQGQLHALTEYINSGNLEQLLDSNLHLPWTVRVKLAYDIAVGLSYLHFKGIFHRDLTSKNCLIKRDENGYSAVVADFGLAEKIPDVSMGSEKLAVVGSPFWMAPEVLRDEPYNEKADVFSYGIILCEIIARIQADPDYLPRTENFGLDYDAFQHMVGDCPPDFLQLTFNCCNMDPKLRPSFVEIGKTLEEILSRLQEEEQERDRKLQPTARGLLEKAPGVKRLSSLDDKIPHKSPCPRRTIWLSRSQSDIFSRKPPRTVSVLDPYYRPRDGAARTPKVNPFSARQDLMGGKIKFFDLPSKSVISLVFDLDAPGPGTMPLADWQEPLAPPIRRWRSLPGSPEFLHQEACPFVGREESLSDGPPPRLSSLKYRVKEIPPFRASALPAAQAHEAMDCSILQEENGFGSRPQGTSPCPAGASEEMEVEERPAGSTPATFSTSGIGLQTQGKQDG
In test [7] the target is T1, Protein kinase C zeta type (Homo sapiens, UniProt Q05513).
T1 sequence (Q05513 whole entry): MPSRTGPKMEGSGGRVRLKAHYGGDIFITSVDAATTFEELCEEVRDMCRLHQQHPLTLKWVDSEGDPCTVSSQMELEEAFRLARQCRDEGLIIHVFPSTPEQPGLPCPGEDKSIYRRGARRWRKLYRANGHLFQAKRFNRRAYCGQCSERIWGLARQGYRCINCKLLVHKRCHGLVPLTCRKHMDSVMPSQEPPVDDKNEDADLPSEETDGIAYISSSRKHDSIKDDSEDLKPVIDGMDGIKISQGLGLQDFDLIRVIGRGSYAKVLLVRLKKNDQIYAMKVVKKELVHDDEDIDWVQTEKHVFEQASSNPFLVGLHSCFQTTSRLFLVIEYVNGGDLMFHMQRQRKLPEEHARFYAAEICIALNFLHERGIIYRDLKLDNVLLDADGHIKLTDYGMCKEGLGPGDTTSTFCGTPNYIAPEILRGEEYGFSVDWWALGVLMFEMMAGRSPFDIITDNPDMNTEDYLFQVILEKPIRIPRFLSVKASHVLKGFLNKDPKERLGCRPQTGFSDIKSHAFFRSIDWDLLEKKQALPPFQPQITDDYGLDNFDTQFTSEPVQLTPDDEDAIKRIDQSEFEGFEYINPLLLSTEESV

For test [8], the target named is Dual specificity protein kinase CLK4 (Homo sapiens, UniProt Q9HAZ1).
Test [9] has as its target Tyrosine-protein kinase Fgr (Homo sapiens, UniProt P09769).
The target of test [10] is Uncharacterized aarF domain-containing protein kinase 5 (Homo sapiens, UniProt Q3MIX3).
Sequence of Uncharacterized aarF domain-containing protein kinase 5 (Q3MIX3 whole entry, the tested form may be a part): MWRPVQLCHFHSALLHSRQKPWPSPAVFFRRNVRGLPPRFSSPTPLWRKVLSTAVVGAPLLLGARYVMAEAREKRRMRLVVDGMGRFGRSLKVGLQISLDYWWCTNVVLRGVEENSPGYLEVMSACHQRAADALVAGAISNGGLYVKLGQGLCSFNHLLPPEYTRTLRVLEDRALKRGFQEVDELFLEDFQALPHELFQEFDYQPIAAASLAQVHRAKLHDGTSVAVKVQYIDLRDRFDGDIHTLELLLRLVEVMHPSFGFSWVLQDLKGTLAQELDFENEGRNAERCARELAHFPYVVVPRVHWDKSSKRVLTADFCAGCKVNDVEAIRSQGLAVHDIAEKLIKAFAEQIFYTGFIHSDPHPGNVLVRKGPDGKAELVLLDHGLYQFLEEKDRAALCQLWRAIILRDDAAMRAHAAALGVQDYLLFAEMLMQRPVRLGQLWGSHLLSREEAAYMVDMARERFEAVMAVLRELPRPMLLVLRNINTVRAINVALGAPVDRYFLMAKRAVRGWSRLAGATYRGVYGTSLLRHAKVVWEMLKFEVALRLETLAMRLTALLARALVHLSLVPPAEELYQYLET
The target in test [11] is Dual specificity tyrosine-phosphorylation-regulated kinase 1B (Homo sapiens, UniProt Q9Y463).
Test [12] concerns the target Misshapen-like kinase 1 (Homo sapiens, UniProt Q8N4C8).
Test [13] has as its target Serine/threonine-protein kinase 38 (Homo sapiens, UniProt Q15208).
The target of test [14] is Dual specificity protein kinase CLK3 (Homo sapiens, UniProt P49761). In kind it is subcellular, K-562, COLO 205, SK-N-BE(2) and MV-4-11, Cell lysate. The settings on record: read-out: Kd apparent.
Sequence of Dual specificity protein kinase CLK3 (P49761 whole entry): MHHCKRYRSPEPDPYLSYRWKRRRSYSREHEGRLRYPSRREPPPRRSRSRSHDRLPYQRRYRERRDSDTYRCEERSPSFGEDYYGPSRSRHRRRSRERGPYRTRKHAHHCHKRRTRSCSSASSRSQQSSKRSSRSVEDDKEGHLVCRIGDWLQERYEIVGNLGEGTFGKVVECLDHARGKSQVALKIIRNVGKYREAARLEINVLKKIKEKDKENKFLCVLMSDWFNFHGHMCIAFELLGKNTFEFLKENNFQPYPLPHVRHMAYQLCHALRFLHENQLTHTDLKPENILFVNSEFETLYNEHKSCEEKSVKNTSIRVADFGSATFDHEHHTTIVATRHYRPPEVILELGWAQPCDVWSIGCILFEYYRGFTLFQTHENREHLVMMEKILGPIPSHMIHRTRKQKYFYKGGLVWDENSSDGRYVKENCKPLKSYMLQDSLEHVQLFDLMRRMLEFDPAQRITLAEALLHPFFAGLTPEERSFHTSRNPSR
The target in test [15] is T2, UMP-CMP kinase (Homo sapiens, UniProt P30085).
T2 sequence (P30085 whole entry): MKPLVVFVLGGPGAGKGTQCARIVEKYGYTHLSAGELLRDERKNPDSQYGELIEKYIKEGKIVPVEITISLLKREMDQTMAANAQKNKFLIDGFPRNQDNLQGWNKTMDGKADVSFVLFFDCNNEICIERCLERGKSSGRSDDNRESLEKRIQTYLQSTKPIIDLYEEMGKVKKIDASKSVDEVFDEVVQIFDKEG

Test [16] deals with Cyclin-dependent kinase 10 (Homo sapiens, UniProt Q15131).
Sequence of Cyclin-dependent kinase 10 (Q15131 whole entry): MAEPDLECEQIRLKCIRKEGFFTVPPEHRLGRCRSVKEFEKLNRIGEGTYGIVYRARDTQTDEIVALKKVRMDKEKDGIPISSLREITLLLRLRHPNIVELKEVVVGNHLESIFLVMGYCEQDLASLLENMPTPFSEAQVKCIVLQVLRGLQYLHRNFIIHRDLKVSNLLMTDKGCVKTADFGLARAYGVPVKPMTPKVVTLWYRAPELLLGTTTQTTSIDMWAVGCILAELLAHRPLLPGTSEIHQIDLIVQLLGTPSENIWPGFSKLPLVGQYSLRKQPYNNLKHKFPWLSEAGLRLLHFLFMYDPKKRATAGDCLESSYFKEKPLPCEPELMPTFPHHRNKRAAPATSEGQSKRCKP

Structures are written as SMILES. Active and inactive are the calls of the source. On the calls: in the data inactive means no Kd found up to 30 µM.

Sequence of Tyrosine-protein kinase Fgr (P09769 whole entry, the tested form may be a part): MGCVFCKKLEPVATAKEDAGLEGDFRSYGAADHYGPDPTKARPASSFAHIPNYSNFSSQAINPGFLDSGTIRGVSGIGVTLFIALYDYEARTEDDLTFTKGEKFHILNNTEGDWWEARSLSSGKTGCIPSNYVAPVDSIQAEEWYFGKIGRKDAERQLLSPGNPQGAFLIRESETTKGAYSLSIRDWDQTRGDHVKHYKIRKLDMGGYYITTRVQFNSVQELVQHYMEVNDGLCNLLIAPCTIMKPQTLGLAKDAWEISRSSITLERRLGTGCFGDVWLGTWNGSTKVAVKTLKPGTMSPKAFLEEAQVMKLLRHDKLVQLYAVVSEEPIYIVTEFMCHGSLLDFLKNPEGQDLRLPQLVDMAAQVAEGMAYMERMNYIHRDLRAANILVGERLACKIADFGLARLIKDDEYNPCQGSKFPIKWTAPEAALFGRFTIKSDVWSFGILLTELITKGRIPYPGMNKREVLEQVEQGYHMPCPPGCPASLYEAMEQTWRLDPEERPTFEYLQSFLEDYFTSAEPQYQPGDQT
Sequence of Misshapen-like kinase 1 (Q8N4C8 whole entry): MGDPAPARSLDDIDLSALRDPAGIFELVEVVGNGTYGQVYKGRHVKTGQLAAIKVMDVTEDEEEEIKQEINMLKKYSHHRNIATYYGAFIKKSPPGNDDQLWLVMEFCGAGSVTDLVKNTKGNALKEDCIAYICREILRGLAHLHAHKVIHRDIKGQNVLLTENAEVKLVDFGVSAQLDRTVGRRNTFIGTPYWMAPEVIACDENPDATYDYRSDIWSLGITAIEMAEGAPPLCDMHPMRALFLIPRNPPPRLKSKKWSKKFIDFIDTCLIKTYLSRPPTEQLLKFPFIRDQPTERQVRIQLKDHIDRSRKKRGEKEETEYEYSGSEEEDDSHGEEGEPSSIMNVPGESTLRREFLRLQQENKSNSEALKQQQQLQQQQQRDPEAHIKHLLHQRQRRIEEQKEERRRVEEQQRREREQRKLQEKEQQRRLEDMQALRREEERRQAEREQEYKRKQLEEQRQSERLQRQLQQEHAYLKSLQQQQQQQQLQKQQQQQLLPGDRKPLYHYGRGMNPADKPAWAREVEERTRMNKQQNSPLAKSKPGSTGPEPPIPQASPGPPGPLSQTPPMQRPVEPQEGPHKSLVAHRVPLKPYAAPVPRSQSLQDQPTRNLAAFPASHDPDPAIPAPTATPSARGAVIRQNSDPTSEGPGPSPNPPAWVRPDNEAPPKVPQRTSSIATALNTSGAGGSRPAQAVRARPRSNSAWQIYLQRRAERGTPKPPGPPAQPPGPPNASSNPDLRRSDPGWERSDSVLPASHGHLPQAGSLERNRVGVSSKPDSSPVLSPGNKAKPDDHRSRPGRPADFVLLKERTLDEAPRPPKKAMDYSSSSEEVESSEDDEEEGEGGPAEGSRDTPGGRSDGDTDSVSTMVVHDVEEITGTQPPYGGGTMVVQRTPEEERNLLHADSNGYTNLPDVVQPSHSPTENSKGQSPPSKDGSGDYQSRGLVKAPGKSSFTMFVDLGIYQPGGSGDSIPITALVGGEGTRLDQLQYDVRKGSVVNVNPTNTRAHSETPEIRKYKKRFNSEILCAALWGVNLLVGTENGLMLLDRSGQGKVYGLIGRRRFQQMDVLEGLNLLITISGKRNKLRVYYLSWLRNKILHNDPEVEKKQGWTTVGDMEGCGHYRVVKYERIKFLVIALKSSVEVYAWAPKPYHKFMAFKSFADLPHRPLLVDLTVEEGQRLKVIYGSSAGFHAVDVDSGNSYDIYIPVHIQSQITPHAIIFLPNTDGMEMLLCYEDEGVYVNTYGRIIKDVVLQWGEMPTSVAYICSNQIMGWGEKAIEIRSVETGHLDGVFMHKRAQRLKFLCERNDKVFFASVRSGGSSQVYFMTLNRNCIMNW
Sequence of Serine/threonine-protein kinase 38 (Q15208 whole entry): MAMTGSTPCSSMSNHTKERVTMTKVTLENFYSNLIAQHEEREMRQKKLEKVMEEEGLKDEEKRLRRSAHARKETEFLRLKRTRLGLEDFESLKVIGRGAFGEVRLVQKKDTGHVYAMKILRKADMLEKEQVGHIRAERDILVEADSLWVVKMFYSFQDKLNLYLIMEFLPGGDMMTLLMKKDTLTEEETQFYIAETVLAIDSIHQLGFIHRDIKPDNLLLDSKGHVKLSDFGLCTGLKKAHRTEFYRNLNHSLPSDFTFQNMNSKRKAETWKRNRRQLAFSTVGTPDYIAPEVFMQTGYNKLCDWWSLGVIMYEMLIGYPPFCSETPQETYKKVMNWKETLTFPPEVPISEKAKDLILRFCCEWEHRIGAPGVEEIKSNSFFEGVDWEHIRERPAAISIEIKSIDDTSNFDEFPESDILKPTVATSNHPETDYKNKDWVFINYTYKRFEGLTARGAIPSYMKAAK
Sequence of Choline-phosphate cytidylyltransferase A (P49585 whole entry): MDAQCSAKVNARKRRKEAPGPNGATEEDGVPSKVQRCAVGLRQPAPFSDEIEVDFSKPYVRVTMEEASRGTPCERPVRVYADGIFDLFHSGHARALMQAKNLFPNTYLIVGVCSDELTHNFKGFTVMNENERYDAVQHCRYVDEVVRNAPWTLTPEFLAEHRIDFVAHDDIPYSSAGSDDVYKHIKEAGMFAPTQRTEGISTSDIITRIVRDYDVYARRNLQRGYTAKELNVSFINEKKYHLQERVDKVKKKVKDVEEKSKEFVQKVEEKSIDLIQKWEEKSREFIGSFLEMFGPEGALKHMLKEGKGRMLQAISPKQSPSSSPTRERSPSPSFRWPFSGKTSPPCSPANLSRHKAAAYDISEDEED

Turning to `Cc1nc2cc(-c3nn(C(C)C)c4ncnc(N)c34)ccc2o1`, the Kd in [1] was > 30 µM (inactive); in [2], > 30 µM (inactive); in test [3] it was > 30 µM (inactive); in [4], > 30 µM (inactive); in [5], > 30 µM (inactive); in [6], 0.018 µM. The Kd in test [7], in test [8], in [9] and in test [10] was > 30 µM (inactive) each time.
For the compound `C=CC(=O)Nc1cc2c(Nc3ccc(F)c(Cl)c3)ncnc2cc1C#CC(C)(C)N1CCN(C)CC1` [AV-412 FREE BASE], the Kd in test [11], in test [6], in test [7], in test [8] and in test [10] was > 30 µM (inactive) each time.
`Cc1cc(Nc2ncc(Cl)c(Nc3ccccc3S(=O)(=O)C(C)C)n2)c(OC(C)C)cc1C1CCNCC1` [CERITINIB]: the Kd in test [12], in test [4], in test [11], in test [7], in test [13] and in test [10] was > 30 µM (inactive) each time.
In the case of `COc1c(OCCCN2CCOCC2)ccc2c1N=C(NC(=O)c1cnc(N)nc1)N1CCN=C21` [COPANLISIB], the Kd in [2], in [12], in [4], in test [14], in [5] and in [11] was > 30 µM (inactive) in each case. In addition, the Kd in test [13], in [8] and in test [10] was > 30 µM (inactive) each time.
With `CC(C)(C)c1nc(-c2cccc(NS(=O)(=O)c3c(F)cccc3F)c2F)c(-c2ccnc(N)n2)s1` [DABRAFENIB], the Kd in [1], in test [2], in test [12], in test [4], in test [14] and in test [5] was > 30 µM (inactive) in each case. In addition, the Kd in test [11] was > 30 µM (inactive); in test [6] it was > 30 µM (inactive); in test [7], > 30 µM (inactive); in test [15] it was > 30 µM (inactive); in test [8], > 30 µM (inactive); in test [9] it was 1.55 µM (active). Moreover, the Kd in test [10] and in test [16] was > 30 µM (inactive) throughout.
As to `Cc1nc2cc(-n3ncc(C(=O)c4cc5ccccc5[nH]4)c3N)ccc2[nH]1` [FGFR INHIBITOR DEBIO 1347], the Kd in test [5], in test [6], in test [15] and in test [9] was > 30 µM (inactive) in each case.
For `COc1ccc(S(=O)(=O)N(C(C)=O)c2ccccc2/C=C/c2cc[n+]([O-])cc2)cc1` [HMN-214], the Kd in [1], in test [4], in test [14], in test [5], in test [6] and in [7] was > 30 µM (inactive) in each case. Also, the Kd in test [8], in test [9] and in test [10] was > 30 µM (inactive) in each case.
As to `NC1(c2ccc(-c3nc4ccn5c(=O)[nH]nc5c4cc3-c3ccccc3)cc2)CCC1` [MK-2206], the Kd in test [1], in test [12], in [5], in [11] and in test [15] was > 30 µM (inactive) in each case.
Consider `Cc1[nH]c(/C=C2\C(=O)Nc3ccccc32)c(C)c1CCC(=O)O` [ORANTINIB], for which the Kd in test [1], in [14], in [6], in [9], in test [10] and in test [16] was > 30 µM (inactive) throughout.
`NC(=O)c1c(OCc2c(F)cc(Br)cc2F)nsc1NC(=O)NCCCCN1CCCC1` [OSI-632]: the Kd in test [14], in test [13], in [9] and in test [10] was > 30 µM (inactive) in each case.
On to `Cc1cnc(NC(=O)Nc2cc(Br)c(C)cc2OC[C@@H]2CNCCO2)cn1` [RABUSERTIB], for which the Kd in test [1], in test [2], in [3], in [4], in [14] and in test [5] was > 30 µM (inactive) each time. For the same compound, the Kd in test [6], in test [7], in [8] and in test [16] was > 30 µM (inactive) in each case.
As to `CNC(=O)c1cc(Oc2ccc(NC(=O)Nc3cc(C(C)(C)C)nn3-c3ccc4ncccc4c3)c(F)c2)ccn1` [REBASTINIB], the Kd is > 30 µM (inactive) in test [1]; 4.46 µM (active) in [3]; > 30 µM (inactive) in test [12]; > 30 µM (inactive) in [4]; > 30 µM (inactive) in test [14]; 0.002 µM in test [6]. Further, the Kd in [7] is > 30 µM (inactive); in test [8], 2.53 µM; in test [10] it was > 30 µM (inactive).
Take `CO[C@H]1C[C@@H]2CC[C@@H](C)[C@@](O)(O2)C(=O)C(=O)N2CCCC[C@H]2C(=O)O[C@H]([C@H](C)C[C@@H]2CC[C@@H](OP(C)(C)=O)[C@H](OC)C2)CC(=O)[C@H](C)/C=C(\C)[C@@H](O)[C@@H](OC)C(=O)[C@H](C)C[C@H](C)/C=C/C=C/C=C/1C` [RIDAFOROLIMUS]: the Kd is > 30 µM (inactive) in test [2]; > 30 µM (inactive) in test [3]; > 30 µM (inactive) in test [14]; > 30 µM (inactive) in [5]; 1.26 µM in test [11]; > 30 µM (inactive) in test [6]. The Kd in [7], in test [8], in test [10] and in test [16] was > 30 µM (inactive) throughout.
Turning to `N#CC1(c2ccc(NC(=O)c3cccnc3NCc3ccncc3)cc2)CCCC1` [RIVOCERANIB], the Kd in [3], in test [14], in test [5], in test [11], in test [6] and in test [7] was > 30 µM (inactive) in each case. The Kd in test [15], in test [8] and in test [10] was > 30 µM (inactive) each time.
For the compound `Cn1cc(-c2cnn3c(N)c(Br)c([C@@H]4CCCNC4)nc23)cn1` [SCH-900776], the Kd in [12], in test [14], in [7], in test [15], in test [13] and in test [8] was > 30 µM (inactive) in each case. In addition, the Kd in test [9] is > 30 µM (inactive).
In the case of `C[C@@H](NC(=O)c1ncnc(N)c1Cl)c1ncc(C(=O)Nc2cc(C(F)(F)F)c(Cl)cn2)s1` [TOVORAFENIB], the Kd in test [1], in [12], in [14], in test [5], in test [11] and in test [6] was > 30 µM (inactive) each time. Besides, the Kd in [7], in [8], in test [10] and in [16] was > 30 µM (inactive) throughout.

Source of the values: ChEMBL document CHEMBL3991601, “The target landscape of clinical kinase drugs” (Science, 2017).
